Results on 54 molecules are retold here after US8946218B2, “CCR2 receptor antagonists, method for producing the same, and use thereof as medicaments” (Boehringer Ingelheim International GmbH, priority 2010, dated 2015).

The assay deals with T1, CCR2 (Homo sapiens, UniProt P41597).
T1 construct: Membranes were prepared from THP-1 cells; endogenous in cells; host or cells: THP-1 (human acute monocytic leukaemia cells), membrane preparation
T1 sequence (P41597 whole entry): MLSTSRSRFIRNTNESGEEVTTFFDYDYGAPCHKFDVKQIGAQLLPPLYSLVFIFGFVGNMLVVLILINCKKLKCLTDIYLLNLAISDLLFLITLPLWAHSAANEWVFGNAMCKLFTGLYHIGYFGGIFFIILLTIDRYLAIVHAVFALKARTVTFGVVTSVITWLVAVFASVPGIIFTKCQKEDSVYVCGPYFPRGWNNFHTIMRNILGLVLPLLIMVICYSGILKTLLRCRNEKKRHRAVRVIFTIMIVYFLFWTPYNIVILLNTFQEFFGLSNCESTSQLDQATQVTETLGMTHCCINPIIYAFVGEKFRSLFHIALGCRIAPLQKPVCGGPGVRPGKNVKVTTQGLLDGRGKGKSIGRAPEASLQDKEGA
Put plainly: Receptor membrane binding assay: [125I]MCP-1 binding to CCR2 on THP-1 cell membranes (SPA beads). The conditions noted are these: THP-1 membranes, [125I]MCP-1, bound radioactivity after 8 h; read-out: hKi. On the procedure:
The above exemplary substances have been tested for binding to CCR2 using a binding assay as outlined herein below:
THP-1 cells (human acute monocytic leukaemia cells) were cultured under standardized conditions at 37° C. and 5% CO2 in a humidified incubator. THP-1 cells were cultivated in RPMI 1640 medium (Gibco 21875) containing 1% MEM-NEAA (Gibso 11140) 2 mM L-glutamine, 1.5 g/L sodium bicarbonate, 4.5 g/L glucose, 10 mM HEPES and 1.0 mM sodium pyruvate, 90%; 10% fetal calf serum (FCS Gibco 10500-064).
Membranes were prepared from THP-1 cells. THP-1 cells were centrifuged at 300×g at 4° C. for 10 min. The cell pellet was resuspended in Phosphate Buffer Saline (PBS, including 10 μM Pefabloc and a protease inhibitor mix ‘complete’, Boehringer Mannheim (1 tablet/50 ml)), to a concentration of […]. The membrane preparation was performed by disrupting the cells by nitrogen […] (at 50 bar, for 1 h) in a “Nitrogen Bombe” (Parr Instrument). Cell debris was removed by centrifugation (800×g at 4° C., 1 min). The supernatant was centrifuged at 80000×g, 4° C. for 30 min to sediment the cell membranes. Usually 50 mg of protein (Bradford assay) were yielded from 1×10E9 cells. The membranes were resuspended in 25 mM HEPES, 25 mM MgCl2, 1 mM CaCl2, 10% Glycerine for storage in aliquots at −80° C. in 25 mM HEPES, 25 mM MgCl2, 1 mM CaCl2, 10% Glycerine and stored at −80° C.
Receptor Membrane Binding Assay:
Perkin Elmer NEX 332 Jod 125 MCP-1, Stock: 2200 Ci/mmol solved in 2000 μl assay buffer, stored at −20° C. THP-1 membrane were adjusted with 25 mM HEPES, pH 7.2; 5 mM MgCl2; 0.5 mM CaCl2; 0.2% BSA assay buffer to a concentration of 2.5 μg/15 μl. Amersham Biosciences PVT-WGA Beads (RPNQ0001) were adjusted with assay buffer to a concentration of 0.24 mg/30 μl. For preparation of the membrane-bead-suspension membranes and beads were incubated for 30 min at RT under rotation (60 rpm) with a ratio of 1:2. Test compounds dissolved in 100% DMSO to a concentration of 10 mM and are further diluted with 100% DMSO to 1 mM. All additional compound dilutions were obtained with assay buffer, final 1% DMSO. Compounds, membrane-bead-suspension and [125I]MCP-1 (ca. 25000 cpm/10 μl) were incubated. Bound radioactivity was determined by scintillation counter after 8 h. Determination of affinity of test compounds (dissociation constant hKi) is calculated by iterative fitting of experimental data using the “easy sys” program, which is based on law of mass action (Schittkowski K. (1994), Numerische Mathematik, Vol. 68, 129-142).
With `COC1COCCC1NC1CCN(C(=O)c2ncnc(Nc3cccc(C(F)(F)F)c3)c2C)CC1` (stereo not drawn) [Example 1], the Ki was found to be 16 nM. For `COC1COCCC1NC1CCN(C(=O)c2ncnc(Nc3cc(C(F)(F)F)cc(C(F)(F)F)c3)c2C)CC1` (stereo not drawn) [Example 2], the Ki turned out to be 121 nM. As for `COC1COCCC1NC1CCN(C(=O)c2ncnc(Nc3ccccc3)c2C)CC1` (stereo not drawn) [Example 3], the Ki turned out to be 450 nM. As for `COC1COCCC1NC1CCN(C(=O)c2ncnc(Nc3cccc(C(F)(F)F)n3)c2C)CC1` (stereo not drawn) [Example 4], the Ki is 110 nM. As to `COC1COCCC1NC1CCN(C(=O)c2ncnc(Nc3cccc(C)c3)c2C)CC1` (stereo not drawn) [Example 5], the Ki turned out to be 232 nM. Take `CO[C@H]1COCC[C@H]1NC1CCN(C(=O)c2cc(Nc3cccc(C(F)(F)F)c3)ncn2)CC1` [Example 6]: the Ki amounted to 280 nM. Take `CO[C@@H]1COCC[C@@H]1NC1CCN(C(=O)c2cc(Nc3cccc(C(F)(F)F)c3)ncn2)CC1` [Example 7]: the Ki was found to be 138 nM. Consider `CN(C1CCN(C2CCN(C(=O)c3cc(Nc4cccc(C(F)(F)F)c4)ncn3)CC2)CC1)S(C)(=O)=O` [Example 8], for which the Ki amounted to 398 nM. As for `COC1COCCC1NC1CCN(C(=O)c2ncnc(Nc3ccc(Cl)c(Cl)c3)c2C)CC1` (stereo not drawn) [Example 9], the Ki is 2 nM. Take `COC1COCCC1NC1CCN(C(=O)c2ncnc(N(C)c3cccc(C(F)(F)F)c3)c2C)CC1` (stereo not drawn) [Example 10]: the Ki stood at 481 nM. Regarding `COC1COCCC1NC1CCN(C(=O)c2ncnc(Nc3cccc(OC(F)(F)F)c3)c2C)CC1` (stereo not drawn) [Example 11], the Ki was found to be 15 nM. With `COC1COCCC1NC1CCN(C(=O)c2ncnc(Nc3cc(Cl)ccc3C)c2C)CC1` (stereo not drawn) [Example 12], the Ki was 728 nM. As for `COC1COCCC1NC1CCN(C(=O)c2ncnc(Nc3cccc(Cl)c3C)c2C)CC1` (stereo not drawn) [Example 13], the figure is 2990 nM; as for `COC1COCCC1NC1CCN(C(=O)c2ncnc(Nc3cccc(F)c3)c2C)CC1` (stereo not drawn) [Example 14], 146 nM. Consider `COC1COCCC1NC1CCN(C(=O)c2ncnc(Nc3ccc(Br)cc3)c2C)CC1` (stereo not drawn) [Example 15], for which the Ki was 30 nM.

On to `COC1COCCC1NC1CCN(C(=O)c2ncnc(Nc3cccc(-c4ccncc4)c3)c2C)CC1` (stereo not drawn) [Example 16], for which the Ki is 707 nM. In the case of `COC1COCCC1NC1CCN(C(=O)c2ncnc(Nc3ccccc3Cl)c2C)CC1` (stereo not drawn) [Example 17], the Ki came out at 5180 nM.

In the case of `CO[C@@H]1COCC[C@@H]1NC1CCN(C(=O)c2ncnc(Nc3ccc(Cl)c(Cl)c3)c2C)CC1` [Example 17a], the Ki was determined as 1 nM. In the case of `CO[C@H]1COCC[C@H]1NC1CCN(C(=O)c2ncnc(Nc3ccc(Cl)c(Cl)c3)c2C)CC1` [Example 17b] it was 5 nM; in that of `CO[C@@H]1COCC[C@@H]1NC1CCN(C(=O)c2ncnc(Nc3cccc(C(F)(F)F)c3)c2C)CC1` [Example 18], 6 nM; in that of `COc1c(Nc2cccc(C(F)(F)F)c2)ncnc1C(=O)N1CCC(N[C@@H]2CCOC[C@@H]2OC)CC1` [Example 19], 49 nM.

Regarding `COc1c(Nc2cccc(C(F)(F)F)c2)ncnc1C(=O)N1CCC(N[C@H]2CCOC[C@H]2OC)CC1` [Example 20], the Ki amounted to 26 nM. `COc1c(Nc2cccc(C(F)(F)F)c2)ncnc1C(=O)N1CCC(N2CCC(N(C)S(C)(=O)=O)CC2)CC1` [Example 21]: the Ki is 23 nM. For `Cc1c(Nc2ccc3ccccc3c2)ncnc1C(=O)N1CCC(N2CCC(N(C)S(C)(=O)=O)CC2)CC1` [Example 22], the Ki stood at 14 nM. In the case of `COC1COCCC1NC1CCN(C(=O)c2ncnc(Nc3ccc4ccccc4c3)c2C)CC1` (stereo not drawn) [Example 23], the Ki turned out to be 17 nM. As for `Cc1c(Nc2cc3ccccc3c(C)n2)ncnc1C(=O)N1CCC(N2CCC(N(C)S(C)(=O)=O)CC2)CC1` [Example 24], the figure is 854 nM; as for `CO[C@@H]1COCC[C@@H]1NC1CCN(C(=O)c2ccnc(Nc3cccc(C(F)(F)F)c3)c2C)CC1` [Example 25], 165 nM; as for `CO[C@H]1COCC[C@H]1NC1CCN(C(=O)c2ccnc(Nc3cccc(C(F)(F)F)c3)c2C)CC1` [Example 26], 46 nM. For `CO[C@@H]1COCC[C@@H]1NC1CCN(C(=O)c2nccc(Nc3cccc(C(F)(F)F)c3)c2C)CC1` [Example 27], the Ki came out at 5 nM. As to `CO[C@H]1COCC[C@H]1NC1CCN(C(=O)c2nccc(Nc3cccc(C(F)(F)F)c3)c2C)CC1` [Example 28], the Ki worked out at 10 nM. As for `Cc1c(Nc2cccc(C(F)(F)F)c2)ncnc1C(=O)N1CCC(N2CCOCC2)CC1` [Example 29], the Ki turned out to be 53 nM. In the case of `CO[C@@H]1COCC[C@@H]1NC1CCN(C(=O)c2ncnc(Nc3ccc(Cl)c(C(F)(F)F)c3)c2C)CC1` [Example 30] it was 1480 nM; in that of `CO[C@H]1COCC[C@H]1NC1CCN(C(=O)c2ncnc(Nc3ccc(Cl)c(C(F)(F)F)c3)c2C)CC1` [Example 31], 5310 nM. Take `CO[C@@H]1COCC[C@@H]1NC1CCN(C(=O)c2cc(Nc3cccc(C(F)(F)F)c3)nc(C(F)(F)F)n2)CC1` [Example 32]: the Ki was determined as 64 nM. As for `CO[C@H]1COCC[C@H]1NC1CCN(C(=O)c2cc(Nc3cccc(C(F)(F)F)c3)nc(C(F)(F)F)n2)CC1` [Example 33], the Ki is 36 nM. In the case of `COc1nc(Nc2ccc(Cl)c(Cl)c2)c(C)c(C(=O)N2CCC(N[C@H]3CCOC[C@H]3OC)CC2)n1` [Example 33a] it was 0.5 nM; in that of `COc1nc(Nc2ccc(Cl)c(Cl)c2)c(C)c(C(=O)N2CCC(N[C@@H]3CCOC[C@@H]3OC)CC2)n1` [Example 33b], 0.7 nM. As for `CO[C@@H]1COCC[C@@H]1NC1CCN(C(=O)c2nc(C(F)(F)F)nc(Nc3ccc(Cl)c(Cl)c3)c2C)CC1` [Example 33c], the figure is 0.2 nM; as for `CO[C@H]1COCC[C@H]1NC1CCN(C(=O)c2nc(C(F)(F)F)nc(Nc3ccc(Cl)c(Cl)c3)c2C)CC1` [Example 33d], 0.3 nM. `Cc1c(Nc2ccc(Cl)c(Cl)c2)ncnc1C(=O)N1CCC(N[C@H]2CCOC[C@H]2F)CC1` [Example 33e]: the Ki is 23 nM.

`Cc1c(Nc2ccc(Cl)c(Cl)c2)ncnc1C(=O)N1CCC(N[C@@H]2CCOC[C@@H]2F)CC1` [Example 33g]: the Ki turned out to be 8 nM. Regarding `COc1nc(Nc2ccc(Cl)c(Cl)c2)c(C)c(C(=O)N2CCC(NC3CCOCC3F)CC2)n1` (stereo not drawn) [Example 33h], the Ki came out at 2 nM. Consider `COc1nc(Nc2cccc(C(F)(F)F)c2)c(C)c(C(=O)N2CCC(N[C@@H]3CCOC[C@@H]3OC)CC2)n1` [Example 33i], for which the Ki is 3 nM. Consider `COc1nc(Nc2cccc(C(F)(F)F)c2)c(C)c(C(=O)N2CCC(N[C@H]3CCOC[C@H]3OC)CC2)n1` [Example 33j], for which the Ki was found to be 1 nM. Take `COc1nc(Nc2cccc(C(F)(F)F)c2)c(C)c(C(=O)N2CCC(NC3CCOCC3F)CC2)n1` (stereo not drawn) [Example 33k]: the Ki is 5 nM.

As for `Cc1c(Nc2ccc(Cl)c(Cl)c2)ncnc1C(=O)N1CCC(NC2CCOCC2)CC1` [Example 33l], the Ki was 6 nM. In the case of `COc1nc(Nc2ccc(Cl)c(Cl)c2)c(C)c(C(=O)N2CCC(NC3CCOCC3)CC2)n1` [Example 33m], the Ki was determined as 0.7 nM. Take `Cc1c(Nc2ccc(Cl)c(Cl)c2)nc(C(F)(F)F)nc1C(=O)N1CCC(NC2CCOCC2)CC1` [Example 33n]: the Ki was found to be 1 nM.

Take `CO[C@@H]1COCC[C@@H]1NC1CCN(C(=O)c2nc(C3CC3)nc(Nc3ccc(Cl)c(Cl)c3)c2C)CC1` [Example 33o]: the Ki was 0.2 nM. For `CO[C@H]1COCC[C@H]1NC1CCN(C(=O)c2nc(C3CC3)nc(Nc3ccc(Cl)c(Cl)c3)c2C)CC1` [Example 33p], the Ki was found to be 0.3 nM. For the molecule `Cc1c(Nc2ccc(Cl)c(Cl)c2)nc(C2CC2)nc1C(=O)N1CCC(N[C@H]2CCOC[C@H]2F)CC1` [Example 33q], the Ki was determined as 0.8 nM. As for `Cc1c(Nc2ccc(Cl)c(Cl)c2)nc(C2CC2)nc1C(=O)N1CCC(N[C@@H]2CCOC[C@@H]2F)CC1` [Example 33r], the figure is 0.9 nM; as for `Cc1c(Nc2cccc(C(F)(F)F)c2)nc(C2CC2)nc1C(=O)N1CCC(N[C@@H]2CCOC[C@@H]2F)CC1` [Example 33s], 1 nM; as for `CO[C@@H]1COCC[C@@H]1NC1CCN(C(=O)c2nc(C3CC3)nc(Nc3cccc(C(F)(F)F)c3)c2C)CC1` [Example 33t], 0.3 nM.
